Laboratory results taken from US11219658B2, “Composition for preventing or treating diseases caused by caffeine abuse including Evodia officinalis extract or evodiamine as active ingredient” (priority 2016, dated 2022).
Marks after values point to notes of the source that are not given here.

What was measured:
[1] = system: mouse model having motor activity increased by central nervous system stimulation due to caffeine abuse; assay: Caffeine-induced central nervous system stimulation, motor activity in motor ability measurement box; format: in vivo, ICR male mice; details: for excitatory motor activity count (center count), percentage of movement in the center of the box: solvent control 16%; for excitatory motor activity time (center time), percentage of maintenance in the center of the box: solvent control 3%; for total movement of excitatory motor activity: solvent control 7,107 cm
Protocol: (§1) 4-week-old ICR male mice (20 to 22 g) were provided from Koatech (Pyeongtaek, Korea), acclimated by breeding for 1 week or more in an animal breeding room in the School of Pharmacy at Sungkyunkwan University, and freely fed water and feed. The temperature (23±2° C.), humidity (55±10%) and a dark/light cycle (12 hrs) were automatically controlled.
To measure an inhibitory effect of evodiamine on caffeine-induced central nervous system stimulation, the mice prepared in Example 2 were divided into four groups of 12 mice, and treated with evodiamine and caffeine in a different manner. The first group was a group treated with distilled water containing 10% DMSO (control), the second group was a group treated with 10% DMSO-containing distilled water and 10 mg/kg of caffeine, the third group was a group treated with 10 mg/kg of evodiamine and 10 mg/kg of caffeine, and the fourth group was a group treated with 20 mg/kg of evodiamine and 10 mg/kg of caffeine.
Evodiamine was dissolved in 10% DMSO-containing distilled water, and orally administered to mice at doses of 0, 10 and 20 mg/kg, and 30 minutes later, intraperitoneally injected with caffeine 10 mg/kg of caffeine. Then, after 30 minutes, the mice were put into a motor ability measurement box (diameter: 30×30×30 (cm)), and measured for a total of 60 minutes using a video measurement and analysis system (Neurovision, Busan, Korea), followed by conversion of the improvement or inhibition in an increased excitatory motor activity count (center count), excitatory motor activity time (center time) and total movement of excitatory motor activity (total movement) to percentage (%).

[2] = system: mouse model having somnipathy caused by caffeine abuse; assay: Caffeine-induced somnipathy, Entobar (pentobarbital)-induced sleep onset and sleep duration; format: in vivo, ICR male mice; details: for Change in sleep onset (% of Control) / Change in total sleep duration (% of Control): vehicle control = 100
Protocol: as §1
Specifically, the first group was a group treated with 10% DMSO-containing distilled water and 40 mg/kg of Entobar® as a control, the second group was a group treated with 10% DMSO-containing distilled water, 50 mg/kg of caffeine and 40 mg/kg of Entobar®, the third group was a group treated with 200 mg/kg of the Evodia officinalis extract, 50 mg/kg of caffeine and 40 mg/kg of Entobar®, and the fourth group was a group treated with 400 mg/kg of the Evodia officinalis extract, 50 mg/kg of caffeine and 40 mg/kg of Entobar®.
Regarding the administration method, the Evodia officinalis extract was dissolved in 10% DMSO-containing distilled water, orally administered to the mice at doses of 0, 200 and 400 mg/kg once a day for three days, and 30 minutes after the final administration. 50 mg/kg of caffeine was intraperitoneally injected into the mice. Thirty minutes after the caffeine injection, 40 mg/kg of Entobar® was intraperitoneally injected to induce sleep. Immediately after the Entobar® injection, the mice were put into each cage, and then sleep onset and sleep duration were measured.
To compare caffeine-induced somnipathy-improving effects of the Evodia officinalis extract and evodiamine, the Evodia officinalis hot water extract prepared in Example 3, ethanol extract thereof and evodiamine were orally administered to the mice prepared in Example 2 once a day for 3 days. 30 minutes after the final administration, 50 mg/kg of caffeine was intraperitoneally injected into the mice. After thirty minutes. 40 mg/kg of Entobar® was intraperitoneally injected to induce sleep, followed by measuring sleep onset and total sleep duration.

[3] = caffeine 50 mg/kg i.p. alone + Entobar 40 mg/kg i.p.
[4] = evodiamine 5 mg/kg p.o. once a day for 3 days + caffeine 50 mg/kg i.p. + Entobar 40 mg/kg i.p.
[5] = evodiamine 10 mg/kg p.o. once a day for 3 days + caffeine 50 mg/kg i.p. + Entobar 40 mg/kg i.p.

Cn1c(=O)c2c(ncn2C)n(C)c1=O [caffeine, 1,3,7-trimethylxanthine]
excitatory motor activity count (center count), percentage of movement in the center of the box ([1]; caffeine 10 mg/kg i.p. alone (10% DMSO vehicle p.o.), 60 min measurement): 23% | excitatory motor activity time (center time), percentage of maintenance in the center of the box ([1]; caffeine 10 mg/kg i.p. alone): 9% | total movement of excitatory motor activity ([1]; caffeine 10 mg/kg i.p. alone): 15,078 cm | sleep onset ([2]; caffeine 50 mg/kg i.p. + Entobar 40 mg/kg i.p., control without caffeine 219 seconds): 371 s | sleep duration ([2]; caffeine 50 mg/kg i.p. + Entobar 40 mg/kg i.p., control without caffeine 2,940 seconds): 1,812 seconds | Change in sleep onset (% of Control) [2, 3]: 166.8 *** % of Control | Change in total sleep duration (% of Control) [2, 3]: 57.4 ** % of Control

CN1c2ccccc2C(=O)N2CCc3c([nH]c4ccccc34)C21 (centres unmarked) [evodiamine]
excitatory motor activity time (center time), percentage of maintenance in the center of the box ([1]; evodiamine 10 mg/kg p.o. + caffeine 10 mg/kg i.p., caffeine control 9%): 7% | excitatory motor activity count (center count), percentage of movement in the center of the box ([1]; evodiamine 10 mg/kg p.o. + caffeine 10 mg/kg i.p., caffeine control 23%): 20% | total movement of excitatory motor activity ([1]; evodiamine 10 mg/kg p.o. + caffeine 10 mg/kg i.p., caffeine control 15,078 cm): 12,734 cm | excitatory motor activity time (center time), percentage of maintenance in the center of the box ([1]; evodiamine 20 mg/kg p.o. + caffeine 10 mg/kg i.p., caffeine control 9%): 5% | excitatory motor activity count (center count), percentage of movement in the center of the box ([1]; evodiamine 20 mg/kg p.o. + caffeine 10 mg/kg i.p., caffeine control 23%): 19% | total movement of excitatory motor activity ([1]; evodiamine 20 mg/kg p.o. + caffeine 10 mg/kg i.p., caffeine control 15,078 cm): 10,910 cm | Change in sleep onset (% of Control) [2, 4]: 138.7 % of Control | Change in total sleep duration (% of Control) [2, 4]: 100.5 # % of Control | Change in sleep onset (% of Control) [2, 5]: 108.2 # % of Control | Change in total sleep duration (% of Control) [2, 5]: 94.0 % of Control
